# Laboratory results taken from article PMC9743092, “Membrane-Active Cyclic Amphiphilic Peptides: Broad-Spectrum Antibacterial Activity Alone and in Combination with Antibiotics” (Journal of Medicinal Chemistry, 2022).
# Like-named read-outs stand apart in the source and are kept apart here. Bridge positions count the residues as written; N and C are the ends. Square brackets hold non-standard residues; d marks the D form. Peptide text beside a SMILES is read from it. * marks the point of attachment. X1 = CC[C@H](C)CCCCC(=O)*; Dab = NCC[C@H](N)C(=O)O
# Legend:
# [1] = tested on: K. pneumoniae (ATCC BAA-1705); details: 24 h, ≥99.9% kill
# [2] = tested on: P. aeruginosa (ATCC 27883); details: 24 h, ≥99.9% kill
# [3] = tested on: K. pneumoniae (ATCC BAA-1705); details: for MIC K. pneumoniae: supplementary csv, unit not given
# [4] = tested on: MRSA (ATCC BAA-1556); parameters: MIC MRSA: unit not given beside the values; details: for MIC MRSA: supplementary csv, unit not given; for MIC S. aureus (ATCC BAA-1556): antibiotic alone or physical mixture with peptide (1:1 w/w)
# [5] = tested on: human red blood cells (hRBCs); details: red cells of human, 2 h
# [6] = tested on: E. coli (ATCC 25922); parameters: MIC E. coli: unit not given beside the values; details: for MIC E. coli: supplementary csv, unit not given
# [7] = tested on: E. coli (ATCC 25922); details: 24 h, ≥99.9% kill
# [8] = tested on: P. aeruginosa (ATCC 27883); parameters: MIC P. aeruginosa: unit not given beside the values; details: supplementary csv, unit not given
# [9] = tested on: human skin fibroblast cells (HeKa)
# [10] = tested on: normal lung (MRC-5) cells
# [11] = tested on: kidney (HEK-293) cells
# [12] = tested on: liver (HepaRG) cells
# [13] = parameters: method as in PMID 25808204; details: cited from earlier work
# [14] = tested on: P. aeruginosa (ATCC 27883); assay: microbe, parasite or virus in culture; details: Pseudomonas aeruginosa, ATCC27883, 24 h, read-out: MBC P. aeruginosa (ATCC 27883)
# [15] = tested on: S. aureus (ATCC BAA-1556); assay: Synergistic checkerboard assay; type: cell-based; details: Staphylococcus aureus
# [16] = tested on: MRSA (ATCC BAA-1556); assay: microbe, parasite or virus in culture; details: Staphylococcus aureus, ATCCBAA1556|MRSA, 24 h, read-out: MBC MRSA (ATCC BAA-1556)
# [17] = tested on: K. pneumoniae (ATCC BAA-1705); assay: microbe, parasite or virus in culture; details: Klebsiella pneumoniae, ATCCBAA1705, 24 h, read-out: MBC K. pneumoniae (ATCC BAA-1705)
# [18] = tested on: E. coli (ATCC 25922); assay: microbe, parasite or virus in culture; details: Escherichia coli, ATCC25922, 24 h, read-out: MBC E. coli (ATCC 25922)
# [19] = tested on: MRSA (ATCC BAA-1556); assay: microbe, parasite or virus in culture; details: Staphylococcus aureus
# [20] = tested on: E. coli (ATCC 25922); assay: Synergistic checkerboard assay; type: cell-based; details: Escherichia coli
# [21] = tested on: P. aeruginosa (ATCC 27883); assay: Synergistic checkerboard assay; type: cell-based; details: Pseudomonas aeruginosa
# [22] = tested on: P. aeruginosa (ATCC 27883); assay: microbe, parasite or virus in culture; details: Pseudomonas aeruginosa, ATCC27883, read-out: MIC P. aeruginosa (ATCC 27883)
# [23] = tested on: E. coli (ATCC 25922); assay: microbe, parasite or virus in culture; details: Escherichia coli, ATCC25922, read-out: MIC E. coli (ATCC 25922)
# [24] = tested on: S. aureus (ATCC 29213), MRSA (ATCC BAA-1556), E. coli (ATCC 25922), E. coli (ATCC BAA-2452); assay: Serial passage resistance development study; type: cell-based, S. aureus and E. coli; details: 18 repeated passages
# [25] = tested on: K. pneumoniae (ATCC BAA-1705); assay: microbe, parasite or virus in culture; details: Klebsiella pneumoniae, ATCCBAA1705, read-out: MIC K. pneumoniae (ATCC BAA-1705)
# [26] = tested on: K. pneumoniae (ATCC BAA-1705); assay: Synergistic checkerboard assay; details: Klebsiella pneumoniae, ATCCBAA1705, read-out: MIC antibiotic alone
# [27] = tested on: P. aeruginosa (ATCC 10145); assay: microbe, parasite or virus in culture; type: cell-based; details: Pseudomonas aeruginosa, ATCC10145, read-out: MIC P. aeruginosa (ATCC 10145)
# Description: (§1) Daptomycin and polymyxin B were selected as positive controls against Gram-positive and Gram-negative bacteria, respectively.
# (§2) All experiments were conducted in triplicate.
# [28] = tested on: E. coli (ATCC BAA-2452); assay: microbe, parasite or virus in culture; type: cell-based; details: Escherichia coli, ATCCBAA2452, read-out: MIC E. coli (ATCC BAA-2452)
# Description: as §1, §2
# [29] = tested on: K. pneumoniae (ATCC 13883); assay: microbe, parasite or virus in culture; type: cell-based; details: Klebsiella pneumoniae, ATCC13883, read-out: MIC K. pneumoniae (ATCC 13883)
# Description: as §1, §2
# [30] = tested on: P. aeruginosa (ATCC BAA-1744); assay: microbe, parasite or virus in culture; type: cell-based; details: Pseudomonas aeruginosa, ATCCBAA1744, read-out: MIC P. aeruginosa (ATCC BAA-1744)
# Description: as §1, §2
# [31] = tested on: Acinetobacter baumannii (ATCCBAA-1605); assay: microbe, parasite or virus in culture; type: cell-based; details: ATCCBAA1605, read-out: MIC Acinetobacter baumannii (ATCCBAA-1605)
# Description: as §1, §2
# [32] = ATCCBAA1556, checkerboard, read-out: MIC antibiotic alone
# [33] = read-out: MIC MRSA (ATCC BAA-1556)
smiles,measurement,setting,value
"N=C(N)NCCC[C@@H]1NC(=O)[C@H](CCCNC(=N)N)NC(=O)[C@H](CCCNC(=N)N)NC(=O)[C@H](Cc2c[nH]c3ccccc23)NC(=O)[C@H](Cc2c[nH]c3ccccc23)NC(=O)[C@H](Cc2c[nH]c3ccccc23)NC(=O)[C@H](Cc2c[nH]c3ccccc23)NC(=O)[C@H](Cc2c[nH]c3ccccc23)NC(=O)[C@H](CCCNC(=N)N)NC(=O)[C@H](CCCNC(=N)N)NC1=O [5b, [R5W5]]",MBC K. pneumoniae (ATCC BAA-1705),[1],32 µg/mL
same,MBC P. aeruginosa (ATCC 27883),[2],32 µg/mL
same,MIC K. pneumoniae,[3],32
same,MIC MRSA,[4],4
same,HC50,[5],230 µg/mL
same,MIC E. coli,[6],16
same,MBC E. coli (ATCC 25922),[7],64 µg/mL
same,MIC P. aeruginosa,[8],32
"N=C(N)NCCC[C@@H]1NC(=O)[C@H](CCCNC(=N)N)NC(=O)[C@H](CCCNC(=N)N)NC(=O)[C@H](CCCNC(=N)N)NC(=O)[C@H](Cc2c[nH]c3ccccc23)NC(=O)[C@H](Cc2c[nH]c3ccccc23)NC(=O)[C@H](Cc2c[nH]c3ccccc23)NC(=O)[C@H](Cc2c[nH]c3ccccc23)NC(=O)[C@H](CCCNC(=N)N)NC(=O)[C@H](CCCNC(=N)N)NC1=O [6a, [R6W4]] (cyclo(RRRRRRWWWW))",MBC K. pneumoniae (ATCC BAA-1705),[1],128 µg/mL
same,MBC P. aeruginosa (ATCC 27883),[2],16 µg/mL
same,MIC K. pneumoniae (ATCC BAA-1705),[3]; MgCl2 (1 mM),32 µg/mL
same,MIC K. pneumoniae (ATCC BAA-1705),[3]; NH4Cl (6 mM),32 µg/mL
same,MIC K. pneumoniae,[3],64
same,MIC MRSA (ATCC BAA-1556),[4]; CaCl2 (2 mM),8 µg/mL
same,MIC MRSA (ATCC BAA-1556),[4]; FBS (25%),8 µg/mL
same,MIC MRSA (ATCC BAA-1556),[4]; FeCl3 (8 µM),8 µg/mL
same,MIC MRSA (ATCC BAA-1556),[4]; KCl ([…]),8 µg/mL
same,MIC MRSA (ATCC BAA-1556),"[4]; MH broth media, absence of salts and serum",8 µg/mL
same,MIC MRSA (ATCC BAA-1556),[4]; MgCl2 (1 mM),4 µg/mL
same,MIC MRSA (ATCC BAA-1556),[4]; NH4Cl (6 mM),4 µg/mL
same,MIC MRSA (ATCC BAA-1556),[4]; NaCl (150 mM),8 µg/mL
same,MIC MRSA,[4],8
same,HC50,[5],265 µg/mL
same,MIC E. coli,[6],32
same,MBC E. coli (ATCC 25922),[7],32 µg/mL
same,MIC P. aeruginosa,[8],16
"N=C(N)NCCC[C@@H]1NC(=O)[C@H](CCCNC(=N)N)NC(=O)[C@H](CCCNC(=N)N)NC(=O)[C@H](CCCNC(=N)N)NC(=O)[C@H](Cc2c[nH]c3ccccc23)NC(=O)[C@H](Cc2c[nH]c3ccccc23)NC(=O)[C@H](Cc2c[nH]c3ccccc23)NC(=O)[C@H](Cc2c[nH]c3ccccc23)NC(=O)[C@H](Cc2c[nH]c3ccccc23)NC(=O)[C@H](CCCNC(=N)N)NC(=O)[C@H](CCCNC(=N)N)NC1=O [6b, [R6W5]] (cyclo(RRRRRRWWWWW))",MBC K. pneumoniae (ATCC BAA-1705),[1],64 µg/mL
same,MBC P. aeruginosa (ATCC 27883),[2],32 µg/mL
same,MIC K. pneumoniae,[3],64
same,MIC MRSA,[4],8
same,HC50,[5],255 µg/mL
same,MIC E. coli,[6],32
same,MBC E. coli (ATCC 25922),[7],128 µg/mL
same,MIC P. aeruginosa,[8],16
"C[S+](C)[O-] [DMSO (30%), DMSO]",cell viability,[9],7–11%
same,cell viability,[10],7–11%
same,cell viability,[11],7–11%
same,cell viability,[12],7–11%
N=C(N)NCCC[C@H](N)C(=O)O [arginine],pKa value of the arginine guanidinium group,[13],13.8 ± 0.1
O=C(O)c1cn(C2CC2)c2cc(N3CCNCC3)c(F)cc2c1=O [ciprofloxacin],MBC,[14],8 µg/mL
same,MIC,[15]; [32],16 µg/mL
same,MIC S. aureus (ATCC BAA-1556),[4],16 µg/mL
same,MBC,[16],32 µg/mL
same,MIC E. coli (ATCC 25922),[6]; antibiotic alone or physical mixture with peptide (1:1 w/w),64 µg/mL
same,MBC,[17],16 µg/mL
same,MBC,[18],16 µg/mL
C[C@@H](O)[C@H]1C(=O)N2C(C(=O)O)=C(S[C@@H]3CN[C@H](C(=O)N(C)C)C3)[C@H](C)[C@H]12 [meropenem],MBC,[14],4 µg/mL
same,MIC,[19]; [33],2 µg/mL
same,MIC,[19]; read-out: MIC S. aureus (ATCC BAA-1556),2 µg/mL
same,MIC,[15]; [32],2 µg/mL
same,MIC,"[20]; ATCC25922, checkerboard, read-out: MIC antibiotic alone",1 µg/mL
same,MIC,"[21]; ATCC27883, checkerboard, read-out: MIC antibiotic alone",1 µg/mL
same,MBC,[16],8 µg/mL
same,MIC,[22],1 µg/mL
same,MIC,[23],1 µg/mL
same,MBC,[17],64 µg/mL
same,MBC,[18],2 µg/mL
CC[C@H](C)CCCCC(=O)N[C@@H](CCN)C(=O)N[C@H](C(=O)N[C@@H](CCN)C(=O)N[C@H]1CCNC(=O)[C@H]([C@@H](C)O)NC(=O)[C@H](CCN)NC(=O)[C@H](CCN)NC(=O)[C@H](CC(C)C)NC(=O)[C@@H](Cc2ccccc2)NC(=O)[C@H](CCN)NC1=O)[C@@H](C)O [polymyxin B] (X1-[Dab]T[Dab][Dab][Dab][dF]L[Dab][Dab]T; lactam 4-C),change in MIC on resistance induction,[24],negligible changes in the MICs
same,MBC,[14],2 µg/mL
same,MIC,[19]; [33],64 µg/mL
same,MIC,"[15]; ATCCBAA1556, read-out: MIC antibiotic alone",64 µg/mL
same,MIC S. aureus (ATCC BAA-1556),[4],64 µg/mL
same,MIC,"[20]; ATCC25922, read-out: MIC antibiotic alone",2 µg/mL
same,MIC,"[21]; ATCC27883, read-out: MIC antibiotic alone",1 µg/mL
same,MIC,[25],1 µg/mL
same,MIC,[22],1 µg/mL
same,MIC,[26],1 µg/mL
same,MIC,[27],2 µg/mL
same,MIC,[28],1 µg/mL
same,MIC,[29],1 µg/mL
same,MIC,[30],2 µg/mL
same,MIC,[31],1 µg/mL
same,MIC,[23],2 µg/mL
same,MBC,[17],2 µg/mL
same,MBC,[18],4 µg/mL
